{
  "source": "patent US11400059B2",
  "about": "“Treatment of pain and/or pain related symptoms associated with dysmenorrhea” (ALYRA BIOTECH PTY LTD, priority 2017, dated 2022)",
  "format_in_all_cases": "cell-based",
  "key": {"hNOD1": {"biological_target": "T1, hNOD1 (Homo sapiens, UniProt Q9Y239)", "T1 construct": "expressed in transfected cells; host or cells: HEK293", "T1 sequence (Q9Y239 1-953)": "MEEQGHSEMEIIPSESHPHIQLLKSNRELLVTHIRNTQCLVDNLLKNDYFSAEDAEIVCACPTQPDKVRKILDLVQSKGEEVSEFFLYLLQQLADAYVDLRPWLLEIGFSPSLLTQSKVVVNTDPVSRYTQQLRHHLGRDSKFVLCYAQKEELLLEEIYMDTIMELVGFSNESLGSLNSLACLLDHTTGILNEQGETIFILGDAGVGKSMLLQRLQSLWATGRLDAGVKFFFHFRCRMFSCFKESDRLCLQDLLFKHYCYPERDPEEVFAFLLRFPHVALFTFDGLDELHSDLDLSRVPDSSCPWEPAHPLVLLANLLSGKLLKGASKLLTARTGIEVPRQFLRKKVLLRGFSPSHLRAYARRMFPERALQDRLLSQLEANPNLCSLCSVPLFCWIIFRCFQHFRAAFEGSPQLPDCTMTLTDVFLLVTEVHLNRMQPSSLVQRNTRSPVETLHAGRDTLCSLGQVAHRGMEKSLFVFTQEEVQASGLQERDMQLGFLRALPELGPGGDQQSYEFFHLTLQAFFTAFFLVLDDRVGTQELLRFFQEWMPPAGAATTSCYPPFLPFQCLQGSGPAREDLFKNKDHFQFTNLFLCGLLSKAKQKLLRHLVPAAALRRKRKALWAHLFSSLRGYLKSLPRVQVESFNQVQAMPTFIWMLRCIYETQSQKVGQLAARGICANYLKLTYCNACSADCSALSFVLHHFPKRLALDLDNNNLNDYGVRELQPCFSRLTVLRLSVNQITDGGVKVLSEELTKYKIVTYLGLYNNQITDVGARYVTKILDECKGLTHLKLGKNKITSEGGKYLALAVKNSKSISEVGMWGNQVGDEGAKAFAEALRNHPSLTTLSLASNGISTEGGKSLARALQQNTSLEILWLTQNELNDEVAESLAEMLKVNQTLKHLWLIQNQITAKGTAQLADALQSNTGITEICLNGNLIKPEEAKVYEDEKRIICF", "test": "Human NLR antagonist screening, NF-κB SEAP reporter in HEK293 cells", "details": "antagonist mode, Ami 1 μM, +C12-iE-DAP 100 ng/mL, No Sample 10, Control− 1", "protocol": "(§1) Toll-Like Receptor (TLR), NOD-Like Receptor (NLR) and C-Type Lectin Receptor (CLR) stimulation were tested by assessing NF-κB activation in HEK293 cells expressing a given TLR, NLR or CLR. The activity of the test articles was tested at one concentration and compared to control ligands. These steps were performed in triplicate. hNOD1: C12-iE-DAP at 1 μg/mL Antagonist: 100 ng/mL. In a 96-well plate (200 μL total volume) containing the appropriate cells (50,000-75,000 cells/well), 20 μL of the test article or the positive control ligand was added to the wells. For the antagonist assay, the test article was incubated with the cells, at 37° C. with 5% CO2, for 30 minutes prior to the addition of the positive control ligand to the wells. The media added to the wells was designed for the detection of NF-κB induced SEAP expression. After a 16-24 hr incubation the optical density (OD) was read at 650 nm on a Molecular Devices SpectraMax 340PC absorbance detector. Fold induction (ratio of average induced value to average non-induced value) was determined for each TLR, NOD1, NOD2, Dectin-1a, Dectin-1b."}, "Human NOD2": {"biological_target": "T2, Human NOD2 (Homo sapiens, UniProt Q9HC29)", "T2 construct": "expressed in transfected cells; host or cells: HEK293", "T2 sequence (Q9HC29 whole entry)": "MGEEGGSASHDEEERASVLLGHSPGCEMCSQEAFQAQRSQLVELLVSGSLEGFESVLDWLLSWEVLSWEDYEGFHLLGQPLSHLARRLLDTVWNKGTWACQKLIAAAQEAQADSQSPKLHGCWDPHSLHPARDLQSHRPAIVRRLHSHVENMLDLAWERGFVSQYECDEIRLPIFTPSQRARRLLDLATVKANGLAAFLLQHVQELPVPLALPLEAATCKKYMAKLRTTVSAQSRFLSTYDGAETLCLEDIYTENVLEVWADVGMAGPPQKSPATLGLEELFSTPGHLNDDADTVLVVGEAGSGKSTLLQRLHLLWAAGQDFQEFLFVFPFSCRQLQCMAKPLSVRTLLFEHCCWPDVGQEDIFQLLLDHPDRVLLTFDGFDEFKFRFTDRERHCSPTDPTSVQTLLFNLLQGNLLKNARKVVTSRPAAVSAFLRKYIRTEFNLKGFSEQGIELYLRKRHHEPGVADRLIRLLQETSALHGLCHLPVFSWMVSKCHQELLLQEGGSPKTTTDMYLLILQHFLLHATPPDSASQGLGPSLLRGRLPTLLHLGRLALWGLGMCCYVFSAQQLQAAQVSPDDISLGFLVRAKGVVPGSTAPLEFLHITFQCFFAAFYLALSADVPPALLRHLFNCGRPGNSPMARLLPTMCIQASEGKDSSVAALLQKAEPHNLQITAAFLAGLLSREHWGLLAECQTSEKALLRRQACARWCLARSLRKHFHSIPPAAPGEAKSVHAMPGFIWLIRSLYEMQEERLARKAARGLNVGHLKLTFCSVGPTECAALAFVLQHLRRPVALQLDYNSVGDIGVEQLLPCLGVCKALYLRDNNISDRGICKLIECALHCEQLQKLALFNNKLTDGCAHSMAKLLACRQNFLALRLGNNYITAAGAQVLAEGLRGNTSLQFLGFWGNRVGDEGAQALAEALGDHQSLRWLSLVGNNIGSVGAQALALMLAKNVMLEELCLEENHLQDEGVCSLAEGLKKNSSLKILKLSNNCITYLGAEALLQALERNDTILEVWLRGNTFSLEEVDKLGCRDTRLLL", "test": "Human NLR antagonist screening, NF-κB SEAP reporter in HEK293 cells", "details": "antagonist mode, Ami 1 μM, +L18-MDP 50 ng/mL, No Sample 18, Control− 1", "protocol": "as §1, with “hNOD2: L18-MDP” for “hNOD1: C12-iE-DAP”, “100 ng/mL” for “1 μg/mL”, “50” for “100”"}, "Human Dectin-1b": {"biological_target": "T3, Human Dectin-1b (Homo sapiens, UniProt Q9BXN2)", "T3 construct": "expressed in transfected cells; host or cells: HEK293", "T3 sequence (Q9BXN2 1-201 isoform Q9BXN2-2)": "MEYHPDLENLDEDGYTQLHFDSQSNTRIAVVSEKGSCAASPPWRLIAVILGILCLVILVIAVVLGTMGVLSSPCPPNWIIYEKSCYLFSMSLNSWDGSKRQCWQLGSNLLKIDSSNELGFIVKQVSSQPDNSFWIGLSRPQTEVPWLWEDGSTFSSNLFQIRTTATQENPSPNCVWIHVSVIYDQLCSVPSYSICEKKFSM", "test": "Human CLR antagonist screening, NF-κB SEAP reporter in HEK293 cells", "details": "antagonist mode, Ami 1 μM", "protocol": "as §1, with “triplicate. hDectin-1a and hDectin-1b: WGP Soluble (0-glucan from S. cerevisiae)” for “triplicate. hNOD1: C12-iE-DAP”, “at 10 ng/mL Antagonist: 5 ng/mL. Curdlan at 100 μg/mL. Antagonist: 100 μg/mL. Zymosan Depleted (hot alkali treated S. cerevisiae) at 5” for “at 1”, “Antagonist: 3 μg/mL.” for “Antagonist: 100 ng/mL.”"}},
  "data": [
    {"smiles": "CN(C)CCC=C1c2ccccc2CCc2ccccc21", "note": "[Amitriptyline]", "values": [
      {"measurement": "Fold Induction", "setting": "hNOD1", "value": "slight inhibitory effect"},
      {"measurement": "Fold Induction", "setting": "hNOD1; listed as Ami", "value": 9},
      {"measurement": "Fold Induction", "setting": "Human NOD2", "value": "slight inhibitory effect"},
      {"measurement": "Fold Induction", "setting": "Human NOD2; listed as Ami", "value": 17},
      {"measurement": "Fold Induction", "setting": "Human Dectin-1b; +Curdlan 100 μg/mL, No Sample 4, Control− 1", "value": 4},
      {"measurement": "Fold Induction", "setting": "Human Dectin-1b; +WGP Soluble 5 ng/mL, No Sample 1, Control− 1", "value": 1},
      {"measurement": "Fold Induction", "setting": "Human Dectin-1b; +Zymosan Depleted 3 μg/mL, No Sample 7, Control− 1", "value": "slight inhibitory effect"},
      {"measurement": "Fold Induction", "setting": "Human Dectin-1b; +Zymosan Depleted 3 μg/mL, No Sample 7, Control− 1, listed as Ami", "value": 6}
    ]}
  ]
}
